From US6984718B2, “Fluorescence dyes and their applications for whole-cell fluorescence screening assays for caspases, peptidases, proteases and other enzymes and the use thereof” (Cytovia, Inc., priority 1998, dated 2006)

Key:
recombinant caspase-3 = biological target: T1, recombinant caspase-3 (Homo sapiens, UniProt P42574); assay: Cleavage of fluorogenic substrate by recombinant caspase-3, cell-free; assay type: biochemical
T1 sequence (P42574 29-175 limits assumed): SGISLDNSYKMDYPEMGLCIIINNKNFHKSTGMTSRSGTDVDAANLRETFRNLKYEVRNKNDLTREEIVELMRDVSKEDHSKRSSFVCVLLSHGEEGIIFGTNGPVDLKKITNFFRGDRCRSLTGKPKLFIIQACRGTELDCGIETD
T1 sequence (P42574 176-277 limits assumed): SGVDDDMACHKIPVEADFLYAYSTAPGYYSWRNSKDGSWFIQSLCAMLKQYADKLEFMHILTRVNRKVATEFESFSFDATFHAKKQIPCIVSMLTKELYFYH
Description: The cleavage of N-(Ac-DEVD)-N′-(2,3,4,5-tetrafluorobenzoyl)-R110 (SEQ ID NO:5) (Ac-DEVD-R110-TFB) (SEQ ID NO:5) by caspase-3 was tested in a cell-free assay using recombinant enzyme. 10 μM of substrate was incubated with recombinant caspase-3 for 3 hours at 37° C. Control reactions included one sample with no enzyme (Background value) and one sample incubated in the presence of the caspase inhibitor, Ac-DEVD-CHO (SEQ ID NO:5) (Non-specific value).

Jurkat T leukemia cells = assay: Whole cell assay: cleavage of caspase-3 substrate in apoptotic Jurkat cells, flow cytometry; assay type: cell-based, human
Description: Jurkat T leukemia cells were grown in RPMI 1640 media (Life Technologies, Inc.) +10% FCS (Sigma Chemical Company) in a 5% CO2-95% humidity incubator at 37° C., and maintained at a cell density between 4 and 8×10^5 cells/ml. Cells were harvested at 200×g and resuspended at 1×10^6 cells/ml into RPMI 1640 media containing 10% FCS and 1 ml each were dispensed in 2-wells of a 6-well plate. The apoptosis inducer staurosporine was added at 0.5 μg/ml concentration and the plate was incubated for 2 hrs at 37° C. in a 5% CO2-95% humidity incubator. Cells were pelleted and incubated with 50 μM of substrate Ac-DEVD-R110-TFB (SEQ ID NO:5) for 2 hrs at 37° C. in serum-free RPMI medium. 500 μl PBS was added and samples were analyzed by flow cytometry. All flow cytometry analyses were performed on a FACScalibur (Becton Dickinson) using CellQuest analysis software.
The apoptosis inducer anti-Fas antibody (CH-11; MBL) was added at 200 ng/ml concentration and the plate was incubated for 2hrs at 37° C. in a 5% CO2-95% humidity incubator. Cells were pelleted and incubated with 50 μM of substrate Ac-DEVD-R110-TFB (SEQ ID NO:5) for 2 hrs at 37° C. in serum-free RPMI medium. 500 μl PBS was added and samples were analyzed by flow cytometry.
A pan-caspase inhibitor cbz-Val-Asp-fink(see W099/18781) was added to one of the wells. The apoptosis inducer staurosporine was added with and without the caspase inhibitor at 0.5 μg/ml concentration and the plate was incubated for 2 hrs at 37° C. in a 5% CO2-95% humidity incubator. Cells were pelleted and incubated with 50 μM of substrate Ac-DEVD-R110-TFB (SEQ ID NO:5) for 2hr at 37° C. in serum-free RPMI medium. 500 μl PBS was added and samples were analyzed by flow cytometry.

aminopeptidases = assay: Cleavage of substrate by HL-60 cell lysate (aminopeptidases); assay type: biochemical; conditions: 37° C.; for fluorescent signal after incubation with cell lysate: HL-60 cell lysate
Description: N-Gly-R110-PFB was incubated with a lysate made from HL-60 cells, and the amount of fluorescence was measured at various times after incubation at 37° C. Parallel samples were run using the control substrate, N-Cbz-Gly-R110-PFB.

HL-60 cells = assay: Staining of whole, live HL-60 cells with aminopeptidase substrate; assay type: cell-based; conditions: 10 μM, 2 hours at 37° C.
Description: HL-60 cells (about 2×10^6) were incubated with 10 μM of N-Gly-R110-PFB for 2 hours at 37° C. in a CO2 incubator. Parallel samples were similarly incubated with the amino terminal-blocked compound, N-Cbz-Gly-R110. At the end of the incubation, the cells were harvested by centrifugation and resuspended in 50 μL of fresh medium without substrate. Aliquots of each cell suspension were placed in microslides and viewed on a Nikon inverted microscope with epifluorescent illumination.

[1] = Fluorescence standard curve of dye under cell-free conditions (fluorescent microplate reader); assay type: physicochemical
Description: A standard curve consisting of 7 concentrations of N-pentafluorobenzoyl-Rhodamine 110 (0.5 to 20 μM) in a volume of 100 μL was prepared. The fluorescence of each concentration was measured (in triplicate) using a BioTek fluorescent microplate reader, and the signal was plotted as a function of dye concentration. The N-pentafluorobenzoyl-Rhodamine 110 curve was compared to a standard curve of R110 fluorescence prepared in the same way.

HL-60 lysates = assay: Cleavage of Z-DEVD-R110-PFB by HL-60 lysates; assay type: biochemical

Structure (SMILES): CC(=O)N[C@@H](CC(=O)O)C(=O)N[C@@H](CCC(=O)O)C(=O)N[C@H](C(=O)N[C@@H](CC(=O)O)C(=O)Nc1ccc2c(c1)Oc1cc(NC(=O)c3cc(F)c(F)c(F)c3F)ccc1C21OC(=O)c2ccccc21)C(C)C (stereo partly drawn) [Ac-DEVD-R110-TFB, N-(Ac-Asp-Glu-Val-Asp)-N′-(2,3,4,5-tetrafluorobenzoyl)-Rhodamine 110]
- increase in fluorescence over background and non-specific values (recombinant caspase-3; 10 μM substrate, recombinant caspase-3, 3 hours at 37° C.): roughly 50 fold
- cleavage of substrate under whole cell assay conditions, anti-Fas antibody induced apoptosis (Jurkat T leukemia cells; anti-Fas antibody 200 ng/ml 2 hrs, then 50 μM substrate 2 hrs at 37° C.): cleavage
- cleavage of substrate under whole cell assay conditions, staurosporine induced apoptosis (Jurkat T leukemia cells; staurosporine 0.5 μg/ml 2 hrs, then 50 μM substrate 2 hrs at 37° C.): cleavage

Structure (SMILES): O=C(CNC(=O)OCc1ccccc1)Nc1ccc2c(c1)Oc1cc(NC(=O)c3c(F)c(F)c(F)c(F)c3F)ccc1C21OC(=O)c2ccccc21 (stereo not drawn) [N-Cbz-Gly-R110-PFB, N-(Z-Gly)-N′-pentafluorobenzoyl-Rhodamine 110]
- fluorescent signal after incubation with cell lysate (aminopeptidases): did not give a signal
- fluorescent signal after incubation with buffer only (no lysate) (aminopeptidases): did not give a signal
- fluorescence of whole cells incubated with substrate (HL-60 cells): did not fluoresce above background levels

Structure (SMILES): Br.NCC(=O)Nc1ccc2c(c1)Oc1cc(NC(=O)c3c(F)c(F)c(F)c(F)c3F)ccc1C21OC(=O)c2ccccc21 (stereo not drawn) [N-Gly-R110-PFB, N-Gly-N′-pentafluorobenzoyl-Rhodamine 110 HBr]
- fluorescent signal after incubation with cell lysate (aminopeptidases): strong fluorescent signal
- fluorescent signal after incubation with buffer only (no lysate) (aminopeptidases): very weak fluorescent signal
- fluorescence of whole cells incubated with substrate (HL-60 cells): strong, homogeneously distributed, yellowish-green fluorescence

Structure (SMILES): Nc1ccc2c(c1)Oc1cc(NC(=O)c3c(F)c(F)c(F)c(F)c3F)ccc1C21OC(=O)c2ccccc21 (stereo not drawn) [N-pentafluorobenzoyl-Rhodamine 110, N-Pentafluorobenzoyl-Rhodamine 110]
- fluorescence compared to Rhodamine 110 ([1]; cell-free conditions): weaker fluorescent dye compared to Rhodamine 110

Structure (SMILES): Cl.N=c1ccc2c(-c3ccccc3C(=O)O)c3ccc(N)cc3oc-2c1 [Rhodamine 110, reference compound]
- higher fluorescence of R110 than N-pentafluorobenzoyl-Rhodamine 110 ([1]; each concentration tested, 0.5 to 20 μM, cell-free): 20 to 50 fold

Structure (SMILES): CC(C)[C@H](NC(=O)[C@H](CCC(=O)O)NC(=O)[C@H](CC(=O)O)NC(=O)OCc1ccccc1)C(=O)N[C@@H](CC(=O)O)C(=O)Nc1ccc2c(c1)Oc1cc(NC(=O)c3c(F)c(F)c(F)c(F)c3F)ccc1C21OC(=O)c2ccccc21 (stereo partly drawn) [Z-DEVD-R110-PFB, N-(Z-Asp-Glu-Val-Asp)-N′-pentafluorobenzoyl-Rhodamine 110]
- increase in fluorescence over the uncleaved substrate (recombinant caspase-3; recombinant caspase-3): greater than 10 fold
- cleavage by lysate from apoptotic HL-60 cells (HL-60 lysates): readily cleaved

Structure (SMILES): CC(C)[C@H](NC(=O)OCc1ccccc1)C(=O)NC(CC(=O)O)C(=O)CF (stereo partly drawn) [cbz-Val-Asp-fink]
- inhibition of staurosporine induced cleavage of Ac-DEVD-R110-TFB in whole cells (Jurkat T leukemia cells; staurosporine 0.5 μg/ml, 2 hrs): can be inhibited by the pan-caspase inhibitor

Structure (SMILES): CN[C@@H]1C[C@H]2O[C@@](C)([C@@H]1OC)n1c3ccccc3c3c4c(c5c6ccccc6n2c5c31)C(=O)NC4 [staurosporine]
- induction of apoptosis read out as cleavage of Ac-DEVD-R110-TFB (Jurkat T leukemia cells; inducer at 0.5 μg/ml, 2 hrs): leads to cleavage of the caspase-3 substrate
